In one experiment the target is T1, KRASG12D (Homo sapiens, UniProt P01116, G12D).
T1 construct: made in house; host or cells: E. coli BL21 (DE3)
The experiment is described as follows: Bio-Biochem-PPI-HTRF Ras-SOS1 interaction assay (KRAS G12D). In kind it is biochemical. The following applies: 5 nM. The essentials: (§1)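 HTRF measurement of GST-K-Ras (wt or G12D) binding to His-hSOS1, via anti-GST-Eu(K) donor and anti-6His-XL665 acceptor, in HEPES pH 7.4 buffer with NaCl, DTT, BSA and Igepal. Read after ≥10 min; compounds in duplicate from 10 μM down to 0.01 μM. IC50 from 665/620 nm ratio.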

The target of the next experiment is T2, KRASwt (Homo sapiens, UniProt P01116).
T2 construct: made in house; host or cells: E. coli BL21 (DE3)
Kind of experiment: Bio-Biochem-PPI-HTRF Ras-SOS1 interaction assay (KRAS wt). It counts as biochemical. The following applies: 5 nM. The essentials: as §1

Drawing on patent US20240109918A1, “HETEROCYCLIC COMPOUNDS AND USES THEREOF” (Kumquat Biosciences Inc., priority 2022, published 2024), this text covers IC50 for 13 compounds.

The term IC50 denotes the concentration that inhibits the measured activity by half. High values mean lower potency, low ones higher potency.

Some results are limits rather than exact numbers.

T2 sequence (P01116 1-188 isoform P01116-2): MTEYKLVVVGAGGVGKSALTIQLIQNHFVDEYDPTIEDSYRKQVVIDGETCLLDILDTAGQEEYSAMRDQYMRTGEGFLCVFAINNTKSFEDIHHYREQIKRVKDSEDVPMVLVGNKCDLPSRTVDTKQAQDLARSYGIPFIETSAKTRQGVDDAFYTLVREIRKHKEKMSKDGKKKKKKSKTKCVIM
T1 sequence (P01116 1-188 isoform P01116-2 G12D): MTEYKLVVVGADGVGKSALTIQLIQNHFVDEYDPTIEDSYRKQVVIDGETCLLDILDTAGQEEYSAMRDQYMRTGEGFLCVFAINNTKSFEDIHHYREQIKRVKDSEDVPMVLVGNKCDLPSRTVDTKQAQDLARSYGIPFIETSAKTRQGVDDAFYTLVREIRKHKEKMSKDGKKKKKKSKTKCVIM

Take `N#Cc1c(N)sc2c(F)ccc(-c3c(Cl)cc4c(N5CCCCC6(CN(C(=O)CCC(F)F)C6)C5)nc(OC[C@@]56CCCN5C[C@H](F)C6)nc4c3F)c12` [compound 337, 2-amino-4-(6-chloro-4-(2-(4,4-difluorobutanoyl)-2,6-diazaspiro[3.6]decan-6-yl)-8-fluoro-2-(((2R,7aS)-2-fluorotetrahydro-1H-pyrrolizin-7a(5H)-yl)methoxy)quinazolin-7-yl)-7-fluorobenzo[b]thiophene-3-carbonitrile]: the IC50 on KRASG12D and on KRASwt was less than 5 µM in each case.
As to `CC(=O)N1CC2(CCCCN(c3nc(OC[C@@]45CCCN4C[C@H](F)C5)nc4c(F)c(-c5ccc(F)c6sc(N)c(C#N)c56)c(Cl)cc34)C2)C1` [compound 338, 4-(4-(2-acetyl-2,6-diazaspiro [3.6]decan-6-yl)-6-chloro-8-fluoro-2-(((2R,7aS)-2-fluorotetrahydro-1H-pyrrolizin-7a(5H)-yl)methoxy)quinazolin-7-yl)-2-amino-7-fluorobenzo[b]thiophene-3-carbonitrile], the IC50 against KRASG12D and against KRASwt was less than 5 µM each time.
As to `CC(C)(O)C(F)(F)C(=O)N1CC2(CCCCN(c3nc(OC[C@@]45CCCN4C[C@H](F)C5)nc4c(F)c(-c5ccc(F)c6sc(N)c(C#N)c56)c(Cl)cc34)C2)C1` [compound 339, 2-amino-4-(6-chloro-4-(2-(2,2-difluoro-3-hydroxy-3-methylbutanoyl)-2,6-diazaspiro[3.6]decan-6-yl)-8-fluoro-2-(((2R,7aS)-2-fluorotetrahydro-1H-pyrrolizin-7a(5H)-yl)methoxy)quinazolin-7-yl)-7-fluorobenzo[b]thiophene-3-carbonitrile], the IC50 against KRASG12D and against KRASwt was less than 5 µM in each case.
In the case of `N#Cc1c(N)sc2c(F)ccc(-c3c(Cl)cc4c(N5CCCCC6(CN(C(=O)C7(C(F)F)COC7)C6)C5)nc(OC[C@@]56CCCN5C[C@H](F)C6)nc4c3F)c12` [compound 340, 2-amino-4-(6-chloro-4-(2-(3-(difluoromethyl)oxetane-3-carbonyl)-2,6-diazaspiro[3.6]decan-6-yl)-8-fluoro-2-(((2R,7aS)-2-fluorotetrahydro-1H-pyrrolizin-7a(5H)-yl)methoxy)quinazolin-7-yl)-7-fluorobenzo[b]thiophene-3-carbonitrile], the IC50 at KRASG12D and on KRASwt was less than 5 µM each time.
For the compound `N#Cc1c(N)sc2c(F)ccc(-c3c(Cl)cc4c(N5CCCCC6(CN(C(=O)c7ccnn7CCC(F)F)C6)C5)nc(OC[C@@]56CCCN5C[C@H](F)C6)nc4c3F)c12` [compound 341, 2-amino-4-(6-chloro-4-(2-(1-(3,3-difluoropropyl)-1H-pyrazole-5-carbonyl)-2,6-diazaspiro[3.6]decan-6-yl)-8-fluoro-2-(((2R,7aS)-2-fluorotetrahydro-1H-pyrrolizin-7a(5H)-yl)methoxy)quinazolin-7-yl)-7-fluorobenzo[b]thiophene-3-carbonitrile], the IC50 at KRASG12D and against KRASwt was less than 5 µM each time.
Regarding `N#Cc1c(N)sc2c(F)ccc(-c3c(Cl)cc4c(N5CCC(F)(F)CC6(CN(C(=O)[C@@H]7C[C@H]7C#N)C6)C5)nc(OC[C@@]56CCCN5C[C@H](F)C6)nc4c3F)c12` [compound 342, 2-amino-4-(6-chloro-4-(2-((1R,2R)-2-cyanocyclopropane-1-carbonyl)-9,9-difluoro-2,6-diazaspiro[3.6]decan-6-yl)-8-fluoro-2-(((2R,7aS)-2-fluorotetrahydro-1H-pyrrolizin-7a(5H)-yl)methoxy)quinazolin-7-yl)-7-fluorobenzo[b]thiophene-3-carbonitrile], the IC50 against KRASG12D and against KRASwt was less than 5 µM each time.
With `Cn1nc(C(F)F)cc1C(=O)N1CC2(CCCCN(c3nc(OC[C@@]45CCCN4C[C@H](F)C5)nc4c(F)c(-c5ccc(F)c6sc(N)c(C#N)c56)c(Cl)cc34)C2)C1` [compound 343, 2-amino-4-(6-chloro-4-(2-(3-(difluoromethyl)-1-methyl-1H-pyrazole-5-carbonyl)-2,6-diazaspiro[3.6]decan-6-yl)-8-fluoro-2-(((2R,7aS)-2-fluorotetrahydro-1H-pyrrolizin-7a(5H)-yl)methoxy)quinazolin-7-yl)-7-fluorobenzo[b]thiophene-3-carbonitrile], the IC50 against KRASG12D and against KRASwt was less than 5 µM throughout.
As to `C#Cc1c(F)ccc2cc(O)cc(-c3ncc4c(N5CCCCC6(CN(C(=O)C(F)F)C6)C5)nc(OC[C@@]56CCCN5C[C@H](F)C6)nc4c3F)c12` [compound 344, 1-(6-(7-(8-ethynyl-7-fluoro-3-hydroxynaphthalen-1-yl)-8-fluoro-2-(((2R,7aS)-2-fluorotetrahydro-1H-pyrrolizin-7a(5H)-yl)methoxy)pyrido [4,3-d]pyrimidin-4-yl)-2,6-diazaspiro[3.6]decan-2-yl)-2,2-difluoroethan-1-one], the IC50 against KRASG12D and against KRASwt was less than 5 µM throughout.
As for `N#Cc1c(N)sc2c(F)ccc(-c3c(Cl)cc4c(N5CCCCC6(CN(C(=O)C7CCC7C#N)C6)C5)nc(OC[C@@]56CCCN5C[C@H](F)C6)nc4c3F)c12` (stereo partly drawn) [compound 345, 2-amino-4-(6-chloro-4-(2-(2-cyanocyclobutane-1-carbonyl)-2,6-diazaspiro[3.6]decan-6-yl)-8-fluoro-2-(((2R,7aS)-2-fluorotetrahydro-1H-pyrrolizin-7a(5H)-yl)methoxy)quinazolin-7-yl)-7-fluorobenzo[b]thiophene-3-carbonitrile], the 50% inhibitory concentration (IC50) against KRASG12D and against KRASwt was less than 5 µM throughout.
Turning to `N#Cc1c(N)sc2c(F)ccc(-c3c(Cl)cc4c(N5CCN(CC6CC6)C6(CN(C(=O)C(F)F)C6)C5)nc(OC[C@@]56CCCN5C[C@H](F)C6)nc4c3F)c12` [compound 346, 2-amino-4-(6-chloro-4-(5-(cyclopropylmethyl)-2-(2,2-difluoroacetyl)-2,5,8-triazaspiro[3.5]nonan-8-yl)-8-fluoro-2-(((2R,7aS)-2-fluorotetrahydro-1H-pyrrolizin-7a(5H)-yl)methoxy)quinazolin-7-yl)-7-fluorobenzo[b]thiophene-3-carbonitrile], the IC50 against KRASG12D and at KRASwt was less than 5 µM each time.
Regarding `N#Cc1c(N)sc2c(F)ccc(-c3c(Cl)cc4c(N5CCCCC6(CN(C(=O)CC7CC(F)(F)C7)C6)C5)nc(OC[C@@]56CCCN5C[C@H](F)C6)nc4c3F)c12` [compound 347, 2-amino-4-(6-chloro-4-(2-(2-(3,3-difluorocyclobutyl)acetyl)-2,6-diazaspiro[3.6]decan-6-yl)-8-fluoro-2-(((2R,7aS)-2-fluorotetrahydro-1H-pyrrolizin-7a(5H)-yl)methoxy)quinazolin-7-yl)-7-fluorobenzo[b]thiophene-3-carbonitrile], the IC50 on KRASG12D and against KRASwt was less than 5 µM in each case.
As to `Cc1c(N)sc2c(F)ccc(-c3c(Cl)cc4c(N5CCOC6(CN(C(=O)/C(C#N)=C/c7ccoc7)C6)C5)nc(OC[C@@]56CCCN5C[C@H](F)C6)nc4c3F)c12` [compound 348, (E)-2-(8-(7-(2-amino-7-fluoro-3-methylbenzo[b]thiophen-4-yl)-6-chloro-8-fluoro-2-(((2R,7aS)-2-fluorotetrahydro-1H-pyrrolizin-7a(5H)-yl)methoxy)quinazolin-4-yl)-5-oxa-2,8-diazaspiro [3.5]nonane-2-carbonyl)-3-(furan-3-yl) acrylonitrile], the IC50 against KRASG12D and on KRASwt was less than 5 µM in each case.
As for `N#Cc1c(N)sc2c(F)ccc(-c3c(Cl)cc4c(N5CCC6(CCN(C(=O)C7CC7(F)F)C6)CC5)nc(OC[C@@]56CCCN5C[C@H](F)C6)nc4c3F)c12` (stereo partly drawn) [compound 349, 2-amino-4-(6-chloro-4-(2-(2,2-difluorocyclopropane-1-carbonyl)-2,8-diazaspiro[4.5]decan-8-yl)-8-fluoro-2-(((2R,7aS)-2-fluorotetrahydro-1H-pyrrolizin-7a(5H)-yl)methoxy)quinazolin-7-yl)-7-fluorobenzo[b]thiophene-3-carbonitrile], the IC50 against KRASG12D and against KRASwt was less than 5 µM throughout.
